This passage reports EC50 results from patent US10059667B2, “Antidiabetic compounds” (MERCK SHARP & DOHME CORP., priority 2014, dated 2018).

By EC50 is commonly meant the concentration needed to bring the measured effect to its halfway point.

Experiment [1] addresses T1, Human GPR40 (Homo sapiens (Human), UniProt O14842). The experiment in a line: Inositol Phosphate Turnover (IP1) Assay 1, HEK cells stably expressing human GPR40, 3H-inositol SPA. The experiment is classed as cell-based. As to conditions: HEK cells stably expressing human GPR40, 96-well. Summed up:
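HEK cells stably expressing human GPR40, labelled 18 h with 3H-myo-inositol in inositol-free medium with 0.4% human or mouse albumin. LiCl added 20 min at 37 degrees, then compound 60 min at 37 degrees; formic acid lysates counted by YSi SPA beads for inositol phosphates.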

The target in experiment [2] is T1, Human GPR40. The experiment in a line: FLIPR assay, agonist-induced calcium mobilization in GPR40/CHO NFAT BLA cells. The experiment is classed as cell-based. The method, then: Human and mouse GPR40 stable cell-lines were generated in CHO cells stably expressing NFAT BLA (Beta-lactamase). A human GPR40 stable cell-line was generated in HEK cells stably expressing the aequorin expressing reporter. The expression plasmids were transfected using lipofectamine (Life Technologies) following manufacturer's instructions. Stable cell-lines were generated following drug selection.
FLIPR (Fluorimetric Imaging Plate Reader, Molecular Devices) assays were performed to measure agonist-induced calcium mobilization of the stable clones. For the FLIPR assay, one day before assay, GPR40/CHO NFAT BLA cells were seeded into black-wall-clear-bottom 384-well plates (Costar) at 1.4×10e4 cells/20 μL medium/well. The cells were incubated with 20 μl/well of the assay buffer (HBSS, 0.1% BSA, 20 mM HEPES, 2.5 mM probenecid, pH 7.4) containing 8 μM fluo-4, AM, 0.08% pluronic acid at room temperature for 100 minutes. Fluorescence output was measured using FLIPR. Compounds were dissolved in DMSO and diluted to desired concentrations with assay buffer. 13.3 μL/well of compound solution was added.
A general note: A change in cytosolic calcium serves as a functional read-out for many receptors and channels.

T1 sequence (O14842 whole entry): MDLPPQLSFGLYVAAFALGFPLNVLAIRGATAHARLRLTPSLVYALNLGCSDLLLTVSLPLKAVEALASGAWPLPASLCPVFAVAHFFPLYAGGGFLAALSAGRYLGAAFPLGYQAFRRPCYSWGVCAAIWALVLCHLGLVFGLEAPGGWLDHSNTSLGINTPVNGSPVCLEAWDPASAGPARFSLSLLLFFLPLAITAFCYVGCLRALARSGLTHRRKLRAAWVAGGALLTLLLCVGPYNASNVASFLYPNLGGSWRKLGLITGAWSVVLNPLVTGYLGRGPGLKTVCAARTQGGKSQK

In the case of `C[C@H](C(=O)O)[C@H](c1cccc(OCC2CN(Cc3cc(C(F)(F)F)ccc3C(F)(F)F)CCO2)c1)C1CC1` (stereo partly drawn) [Example 28], the EC50 in experiment [1] amounted to 613 nM; in experiment [2] it was 21 nM.

For the compound `C[C@H](C(=O)O)[C@H](c1cccc(OCC2CN(Cc3cc(C(F)(F)F)ccc3C(F)(F)F)C2)c1)C1CC1` [Example 25, (2S,3R)-3-(3-((1-(2,5-Bis(trifluoromethyl)benzyl)azetidin-3-yl)methoxy)phenyl)-3-cyclopropyl-2-methylpropanoic acid], the EC50 in experiment [1] is 79 nM; in experiment [2] it was 1.4 nM.

Turning to `O=C(O)C[C@H](c1cccc(OC2CC3CN(Cc4cc(C(F)(F)F)ccc4C(F)(F)F)CC3C2)c1)C1CC1` (stereo partly drawn) [Example 8, (3S)-3-(3-((2-(2,5-bis(trifluoromethyl)benzyl)octahydrocyclopenta[c]pyrrol-5-yl)oxy)phenyl)-3-cyclopropylpropanoic acid], the EC50 in experiment [1] came to 866 nM; in experiment [2], 15 nM.

Take `CC(c1cc(Cl)ccc1Cl)N1CC(COc2cccc([C@@H](CC(=O)O)C3CC3)c2)C1` (stereo partly drawn) [Example 56]: the EC50 in experiment [1] was 347 nM; in experiment [2], 23 nM.

On to `C[C@H](C(=O)O)[C@H](c1cccc(OC[C@@H]2CCN(Cc3cc(C(F)(F)F)ccc3C(F)(F)F)C2)c1)C1CC1` [Example 26], for which the results for the EC50 in experiment [1] and in experiment [2] were 55 nM and 1.5 nM, respectively.

For `CC1(COc2cccc([C@@H](CC(=O)O)C3CC3)c2)CN(Cc2cc(C(F)(F)F)ccc2C(F)(F)F)C1` [Example 6, (S)-3-(3-((1-(2,5-Bis(trifluoromethyl)benzyl)-3-methylazetidin-3-yl)methoxy)phenyl)-3-cyclopropylpropanoic acid], the figures for the EC50 in experiment [1] and in experiment [2] were 2720 nM and 95 nM, respectively.

As to `CC(c1ccccc1Cl)N1CC(COc2cccc([C@@H](CC(=O)O)C3CC3)c2)C1` (stereo partly drawn) [Example 52], the EC50 in experiment [1] stood at 5640 nM; in experiment [2] it was 162 nM.

As to `C[C@H](C(=O)O)[C@H](c1cccc(OC2CN(Cc3cc(C(F)(F)F)ccc3C(F)(F)F)C2)c1)C1CC1` [Example 32], the EC50 is 764 nM in experiment [1] and 59 nM in experiment [2].

Take `COc1cccc(C2CC2COc2cccc([C@@H](CC(=O)O)C3CC3)c2)c1` (single isomer, unassigned) [Example 63, (3 S)-3-cyclopropyl-3-(3-((2-(3-methoxyphenyl)cyclopropyl)methoxy)phenyl)propanoic acid]: the figures for the EC50 in experiment [1] and in experiment [2] were 348 nM and 15 nM, respectively.

In the case of `CC(c1cc(C(F)(F)F)ccc1C(F)(F)F)N1CC(COc2cccc([C@H](C3CC3)[C@H](C)C(=O)O)c2)C1` (stereo partly drawn) [Example 27], the EC50 in experiment [1] turned out to be 7.6 nM; in experiment [2] it was 0.3 nM.

As for `CC(c1cc(C(F)(F)F)ccc1Cl)N1CC(COc2cccc([C@@H](CC(=O)O)C3CC3)c2)C1` (stereo partly drawn) [Example 60], the EC50 in experiment [1] is 527 nM; in experiment [2] it was 184 nM.

Consider `COc1cccc(C2CC2COc2cccc([C@@H](CC(=O)O)C3CC3)c2)c1` (single isomer, unassigned) [Example 62, (3 S)-3-cyclopropyl-3-(3-((2-(3-methoxyphenyl)cyclopropyl)methoxy)phenyl)propanoic acid], for which the EC50 amounted to 166 nM in experiment [1] and 5.7 nM in experiment [2].

Turning to `O=C(O)C[C@H](c1cccc(OC2CCN(Cc3cc(C(F)(F)F)ccc3C(F)(F)F)CC2)c1)C1CC1` [Example 48], the EC50 is 1020 nM in experiment [1] and 142 nM in experiment [2].

As for `C[C@H](C(=O)O)[C@H](c1cccc(OCC2CN(c3cc(C(F)(F)F)ccn3)C2)c1)C1CC1` [Example 16, (2S,3R)-3-Cyclopropyl-2-methyl-3-(3-((1-(4-(trifluoromethyl)pyridin-2-yl)azetidin-3-yl)methoxy)phenyl)propanoic acid], the figures for the EC50 in experiment [1] and in experiment [2] were 631 nM and 79 nM, respectively.

With `C[C@H](C(=O)O)[C@H](c1cccc(O[C@H]2CCCN(Cc3cc(C(F)(F)F)ccc3C(F)(F)F)C2)c1)C1CC1` [Example 1, (2S,3R)-3-(3-(((S)-1-(2,5-bis(trifluoromethyl)benzyl)piperidin-3-yl)oxy)phenyl)-3-cyclopropyl-2-methylpropanoic acid], the EC50 was determined as 89 nM in experiment [1] and 1.9 nM in experiment [2].

In the case of `O=C(O)C[C@H](c1cccc(OCC2CCN(Cc3cc(C(F)(F)F)ccc3C(F)(F)F)C2)c1)C1CC1` (stereo partly drawn) [Example 47], the EC50 is 560 nM in experiment [1] and 42 nM in experiment [2].

`O=C(O)C[C@H](c1cccc(OC2CC3(CCN(Cc4cc(C(F)(F)F)ccc4C(F)(F)F)C3)C2)c1)C1CC1` (single isomer, unassigned) [Example 5B]: the EC50 in experiment [1] was determined as 2140 nM; in experiment [2], 113 nM.

`COc1ccc(F)cc1CN1CC(COc2cccc([C@@H](CC(=O)O)C3CC3)c2)C1` [Example 19, (S)-3-Cyclopropyl-3-(3-((1-(5-fluoro-2-methoxybenzyl)azetidin-3-yl)methoxy)-phenyl)propanoic acid]: the half-maximal effective concentration (EC50) in experiment [1] worked out at 4780 nM; in experiment [2] it was 497 nM.

Regarding `O=C(O)C[C@H](c1cccc(OCC2CN(Cc3cc(C(F)(F)F)ccc3C(F)(F)F)C2)c1)C1CC1` [Example 49], the results for the EC50 in experiment [1] and in experiment [2] were 251 nM and 8.3 nM, respectively.

With `O=C(O)C[C@H](c1cccc(OC2CCCN(Cc3cc(C(F)(F)F)ccc3C(F)(F)F)C2)c1)C1CC1` (stereo partly drawn) [Example 24, (3S)-3-(3-((1-(2,5-Bis(trifluoromethyl)benzyl)piperidin-3-yl)oxy)phenyl)-3-cyclopropylpropanoic acid], the EC50 is 524 nM in experiment [1] and 7.4 nM in experiment [2].

On to `Cc1ccc(C(F)(F)F)cc1C(C)N1CC(COc2cccc([C@@H](CC(=O)O)C3CC3)c2)C1` (stereo partly drawn) [Example 59], for which the EC50 amounted to 777 nM in experiment [1] and 439 nM in experiment [2].

For `O=C(O)C[C@H](c1cccc(OC2CC3(CCN(Cc4cc(C(F)(F)F)ccc4C(F)(F)F)C3)C2)c1)C1CC1` (single isomer, unassigned) [Example 5A], the 50% effective concentration (EC50) in experiment [1] came to 4150 nM; in experiment [2], 455 nM.

In the case of `O=C(O)C[C@H](c1cccc(OCC2CN(Cc3c(F)cccc3C(F)(F)F)C2)c1)C1CC1` [Example 53], the EC50 is 4570 nM in experiment [1] and 389 nM in experiment [2].

Turning to `O=C(O)C[C@H](c1cccc(OCCC2CCN(Cc3cc(C(F)(F)F)ccc3C(F)(F)F)C2)c1)C1CC1` (stereo partly drawn) [Example 2, (3S)-3-(3-(2-(1-(2,5-Bis(trifluoromethyl)benzyl)pyrrolidin-3-yl)ethoxy)phenyl)-3-cyclopropylpropanoic acid], the figures for the EC50 in experiment [1] and in experiment [2] were 1830 nM and 173 nM, respectively.

Turning to `O=C(O)C[C@H](c1cccc(OC2CCN(Cc3cc(C(F)(F)F)ccc3Cl)C2)c1)C1CC1` (stereo partly drawn) [Example 42], the EC50 in experiment [1] is 1120 nM; in experiment [2], 94 nM.

As for `CC(Oc1cccc([C@H](C2CC2)[C@H](C)C(=O)O)c1)C1CN(Cc2cc(C(F)(F)F)ccc2C(F)(F)F)C1` (stereo partly drawn) [Example 9, (2S,3R)-3-(3-(1-(1-(2,5-Bis(trifluoromethyl)benzyl)azetidin-3-yl)ethoxy)phenyl)-3-cyclopropyl-2-methylpropanoic acid], the EC50 in experiment [1] was 217 nM; in experiment [2], 4 nM.

Turning to `O=C(O)C[C@H](c1cccc(OCCC2CN(Cc3cc(C(F)(F)F)ccc3C(F)(F)F)C2)c1)C1CC1` [Example 18, (S)-3-(3-(2-(1-(2,5-Bis(trifluoromethyl)benzyl)azetidin-3-yl)ethoxy)phenyl)-3-cyclopropylpropanoic acid], the EC50 was determined as 3710 nM in experiment [1] and 359 nM in experiment [2].
